Test results reported in ChEMBL document CHEMBL1201862, “PubChem BioAssay data set” (2004).
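Where inhibition never reached the appropriate level, the endpoint shown equals the highest concentration tested. Otherwise, values were interpolated linearly from a five-concentration, 48-hour dose response in 96-well plates. GI50 = concentration required for 50% inhibition of growth.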 Calls of active or inactive are those of the source. Cut-off read from the data, not from the text of the source: active = GI50 up to about 1.1 µM and inactive = higher.

Experiments:
Assay in all cases: inhibition of tumour cell growth, NCI panel, 48 h
TK-10 = system: TK-10
SF-268 = system: SF-268
MDA-MB-435 = system: MDA-MB-435
SNB-19 = system: SNB-19
KM12 = system: KM12
UO-31 = system: UO-31
OVCAR-5 = system: OVCAR-5
T47D = system: T47D
U-251 = system: U-251
SK-MEL-2 = system: SK-MEL-2
HOP-62 = system: HOP-62
OVCAR-3 = system: OVCAR-3
SF-539 = system: SF-539
SK-MEL-5 = system: SK-MEL-5
A549 = system: A549
K562 = system: K562
MDA-MB-231 = system: MDA-MB-231
HL-60 = system: HL-60
A498 = system: A498

Measured: GI50

S=C(Nc1ccc(Cl)cc1)SC1CCCCC1
inactive: TK-10 40.6 µM | SF-268 27 µM | MDA-MB-435 29.9 µM | SNB-19 20.8 µM | KM12 28 µM | UO-31 27 µM | OVCAR-5 17.5 µM | T47D 22.5 µM | U-251 32.4 µM | SK-MEL-2 17.6 µM | HOP-62 27.7 µM | OVCAR-3 21.4 µM | SF-539 23.1 µM | SK-MEL-5 16.7 µM | A549 19.2 µM | K562 36.1 µM | MDA-MB-231 29.4 µM

COc1cc2c(c(O)c1OC)C(=O)[C@@H]1CCC(=O)N1C2c1ccccc1 (stereo not given in full)
inactive: HL-60 45.5 µM | TK-10 > 100 µM | SF-268 > 100 µM | MDA-MB-435 90.6 µM | SNB-19 > 100 µM | KM12 67.5 µM | UO-31 39.6 µM | OVCAR-5 > 100 µM | T47D > 100 µM | U-251 63.1 µM | SK-MEL-2 > 100 µM | HOP-62 > 100 µM | OVCAR-3 65.6 µM | SF-539 > 100 µM | SK-MEL-5 > 10 µM | A549 59 µM | K562 38.6 µM | A498 > 100 µM

c1ccc(-n2nc3ccc4nonc4c3n2)cc1
inactive: HL-60 > 100 µM | TK-10 > 100 µM | SF-268 > 100 µM | MDA-MB-435 > 100 µM | SNB-19 45.9 µM | KM12 > 100 µM | OVCAR-5 > 100 µM | T47D > 100 µM | U-251 > 100 µM | SK-MEL-2 > 100 µM | HOP-62 > 100 µM | OVCAR-3 > 100 µM | SF-539 > 100 µM | SK-MEL-5 > 100 µM | A549 > 100 µM | K562 > 100 µM | MDA-MB-231 > 100 µM

COC(=O)C1=C(C)C(=O)[C@]23C(CCCC[C@H]12)C(=O)[C@H](C(=O)OC)C3C (stereo not given in full)
inactive: HL-60 > 100 µM | TK-10 > 100 µM | SF-268 > 100 µM | MDA-MB-435 > 100 µM | SNB-19 > 100 µM | KM12 > 100 µM | UO-31 > 100 µM | OVCAR-5 > 100 µM | T47D > 100 µM | U-251 > 100 µM | HOP-62 > 100 µM | OVCAR-3 > 100 µM | SF-539 > 100 µM | A549 > 100 µM | K562 > 100 µM | MDA-MB-231 > 100 µM

CCOC(=O)c1nnsc1NC(=O)Nc1ccc(Cl)cc1
inactive: TK-10 > 100 µM | SF-268 57.5 µM | MDA-MB-435 > 100 µM | SNB-19 > 100 µM | KM12 51.6 µM | UO-31 31.1 µM | OVCAR-5 > 100 µM | T47D 34.3 µM | U-251 > 100 µM | SK-MEL-2 > 100 µM | HOP-62 68.9 µM | OVCAR-3 43.2 µM | SK-MEL-5 > 100 µM | A549 43 µM | K562 > 100 µM | MDA-MB-231 20.7 µM

CN1CSC(=S)N(c2cccc(C(F)(F)F)c2)C1
inactive: HL-60 25.5 µM | TK-10 28.6 µM | SF-268 23.1 µM | MDA-MB-435 22.5 µM | SNB-19 21.5 µM | KM12 22.4 µM | UO-31 26.4 µM | OVCAR-5 18.6 µM | T47D 31.7 µM | U-251 32 µM | SK-MEL-2 21.3 µM | HOP-62 26.9 µM | OVCAR-3 30 µM | SF-539 20.7 µM | SK-MEL-5 17.1 µM | A549 24.3 µM | K562 24 µM | A498 28.3 µM

COc1ccc(-c2cc(-c3ccc(C)cc3)n(C3OC(COC(C)=O)C(OC(C)=O)C(OC(C)=O)C3OC(C)=O)c(=S)c2C#N)cc1 (stereo not given)
inactive: HL-60 49.3 µM | TK-10 > 100 µM | SF-268 > 100 µM | MDA-MB-435 > 100 µM | SNB-19 90.6 µM | KM12 > 100 µM | UO-31 > 100 µM | OVCAR-5 > 100 µM | T47D > 100 µM | U-251 50.1 µM | HOP-62 37.1 µM | OVCAR-3 > 100 µM | SF-539 57.5 µM | SK-MEL-5 > 100 µM | A549 > 100 µM | K562 > 100 µM | MDA-MB-231 > 100 µM

C1CCNCC1.CN(C)c1ccc(/C=C2/NC(=S)NC2=O)cc1
inactive: HL-60 19.7 µM | TK-10 59 µM | SF-268 82 µM | MDA-MB-435 27.2 µM | SNB-19 86.7 µM | UO-31 44.5 µM | OVCAR-5 > 100 µM | T47D 30.1 µM | U-251 73.3 µM | SK-MEL-2 > 100 µM | HOP-62 > 100 µM | OVCAR-3 43.9 µM | SF-539 35.2 µM | SK-MEL-5 30.8 µM | A549 46.8 µM | MDA-MB-231 > 100 µM
